In the assay the test system is KRAS PDC multicell spheroid viability. Put plainly: Anticancer human tumor 825966-067-R-J1-PDC patient-derived colon carcinoma cell line growth inhibition [KRAS2]. The note with it: for viability, T/C: stronger effect = lower value. In short, it runs like this: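 KRAS-mutant tumor cells were grown as spheroids with HUVEC endothelial cells and human MSCs as stroma. Targeted agents were tested alone and with KRAS pathway inhibitors. Doses started at or near clinical Cmax, or 10 microM, descending half-log.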

Setting [1] is: curve of first compound, second compound 0.1 µM.
Setting [2] is: curve of first compound, second compound 0.316 µM.
Where [3] appears, read: curve of first compound, second compound 1 µM.
[4] abbreviates: curve of first compound, second compound 3.16 µM.
[5] abbreviates: curve of first compound, second compound 10 µM.
Where [6] appears, read: second compound 0.1 µM, first compound 0.0316 µM.
Setting [7] is: second compound 0.1 µM, first compound 0.1 µM.
[8] abbreviates: second compound 0.1 µM, first compound 0.316 µM.
[9] abbreviates: second compound 0.1 µM, first compound 1 µM.
[10] abbreviates: second compound 0.1 µM, first compound 3.16 µM.
Setting [11] is: second compound 0.316 µM, first compound 0.0316 µM.
Where [12] appears, read: second compound 0.316 µM, first compound 0.1 µM.
Setting [13] is: second compound 0.316 µM, first compound 0.316 µM.
[14] abbreviates: second compound 0.316 µM, first compound 1 µM.
Setting [15] is: second compound 0.316 µM, first compound 3.16 µM.
The mark [16] stands for this setting: second compound 1 µM, first compound 0.0316 µM.
Setting [17] is: second compound 1 µM, first compound 0.1 µM.
[18] abbreviates: second compound 1 µM, first compound 0.316 µM.
[19] abbreviates: second compound 1 µM, first compound 1 µM.
The mark [20] stands for this setting: second compound 1 µM, first compound 3.16 µM.
[21] abbreviates: second compound 3.16 µM, first compound 0.0316 µM.
[22] abbreviates: second compound 3.16 µM, first compound 0.1 µM.
Where [23] appears, read: second compound 3.16 µM, first compound 0.316 µM.
[24] abbreviates: second compound 3.16 µM, first compound 1 µM.
Setting [25] is: second compound 3.16 µM, first compound 3.16 µM.
[26] abbreviates: second compound 10 µM, first compound 0.0316 µM.
The mark [27] stands for this setting: second compound 10 µM, first compound 0.1 µM.
[28] abbreviates: second compound 10 µM, first compound 0.316 µM.
The mark [29] stands for this setting: second compound 10 µM, first compound 1 µM.
Where [30] appears, read: second compound 10 µM, first compound 3.16 µM.
The mark [31] stands for this setting: second compound 0.1 µM, first compound 10 µM.
Setting [32] is: second compound 0.316 µM, first compound 10 µM.
The mark [33] stands for this setting: second compound 1 µM, first compound 10 µM.
[34] abbreviates: second compound 3.16 µM, first compound 10 µM.
Where [35] appears, read: second compound 10 µM, first compound 10 µM.

Data on eight compounds can be found in PubChem BioAssay AID1963865 (Molecular Pharmacology Branch, DTP, NCI, 2024).

The IC50 is the concentration that inhibits the measured activity by half. By viability, T/C is commonly meant the ratio of treated to control.

“And” between values parts separate entries of the source, which are not always exact repeats. Equal values may be shown once.
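Also: spheroids exposed to compounds for 7 days.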
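For viability, T/C in this document: 100% = DMSO vehicle control viability.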

In the case of `CC1COCCN1c1cc(-c2ccnn2C)c2ccnc(-c3ccn[nH]3)c2n1` (stereo not given) + CNCc1ccccc1-c1csc(C(C)Nc2nc(C)nc3cc(OC)c(OC)cc23)c1, the IC50 runs as follows: under setting [1], 244 nM; under setting [2], 278 nM; under setting [3], 122 nM; under setting [4], below 10 nM; under setting [5], below 10 nM. Moreover, the viability, T/C (second compound 0.1 µM, first compound 0.01 µM) is 111%; the viability, T/C under setting [6] is 129%; the viability, T/C under setting [7] is 89.2%; the viability, T/C under setting [8] is 34.4%; the viability, T/C under setting [9] is 44.4%; the viability, T/C under setting [10] is 37.3%. For the same compound, the viability, T/C was 132% (second compound 0.316 µM, first compound 0.01 µM); 131% under setting [11]; 75.8% under setting [12]; 54% under setting [13]; 49.5% under setting [14]; 30.3% under setting [15]. Besides, the viability, T/C is, setting by setting: (second compound 1 µM, first compound 0.01 µM) 104%; under setting [16], 91.5%; under setting [17], 56.8%; under setting [18], 18.3%; under setting [19], 14.2%; under setting [20], 2.54%. The viability, T/C reads like this: (second compound 3.16 µM, first compound 0.01 µM) 29.4%; under setting [21], 8.68%; under setting [22], 1.56%; under setting [23], 2.53%; under setting [24], 0.56%; under setting [25], 0.39%. In addition, the viability, T/C was 0.18% (second compound 10 µM, first compound 0.01 µM); 0.15% under setting [26]; 0.12% under setting [27]; 0.52% under setting [28]; 0.12% under setting [29]; 0.19% under setting [30].

Consider `CCN1CCN(Cc2ccc(Nc3ncc(F)c(-c4cc(F)c5nc(C)n(C(C)C)c5c4)n3)nc2)CC1`, for which the viability, T/C was 98% [middle of 4 runs] (compound 0.00316 µM), 90.6% [middle of 5 runs] (compound 0.01 µM), 95.5% [middle of 5 runs] (compound 0.1 µM) and 117% [middle of 5 runs] (compound 0.316 µM). Moreover, where the note is “curve of compound”, the IC50 was above 1000 nM.

As to `CCNC(=O)CC1N=C(c2ccc(Cl)cc2)c2cc(OC)ccc2-n2c(C)nnc21` (stereo not given), the viability, T/C (compound 10 µM) was 83.8% [middle of 5 runs]. In addition, for the setting “curve of compound”, the IC50 was above 10000 nM.

Regarding `COC(=O)c1ccc2c(C(=Nc3ccc(N(C)C(=O)CN4CCN(C)CC4)cc3)c3ccccc3)c(O)[nH]c2c1` + C=CC(=O)N1CCN(c2nc(=O)n(-c3c(C)ccnc3C(C)C)c3nc(-c4c(O)cccc4F)c(F)cc23)C(C)C1, the concentration for half-maximal inhibition (IC50) by setting is: under setting [1], 633 nM; under setting [2], 738 nM; under setting [3], 513 nM; under setting [4], 472 nM; under setting [5], 444 nM. Further, the viability, T/C under setting [6] is 83.3%; the viability, T/C under setting [7] is 88.2%; the viability, T/C under setting [8] is 72.2%; the viability, T/C under setting [9] was 35.4%; the viability, T/C under setting [10] is 0.37%; the viability, T/C under setting [31] was 0.76%. Also, the viability, T/C under setting [11] was 76.2%; the viability, T/C under setting [12] is 82.6%; the viability, T/C under setting [13] was 77.7%; the viability, T/C under setting [14] is 40%; the viability, T/C under setting [15] is 0.17%; the viability, T/C under setting [32] was 0.12%. For the same compound, the viability, T/C by setting is: under setting [16], 77.3%; under setting [17], 75.7%; under setting [18], 85.6%; under setting [19], 9.2%; under setting [20], 0.13%; under setting [33], 0.13%. The viability, T/C was 83% under setting [21]; 76.4% under setting [22]; 71.6% under setting [23]; 9.78% under setting [24]; 1.23% under setting [25]; 0.13% under setting [34]. Further, the viability, T/C by setting is: under setting [26], 71.2%; under setting [27], 67%; under setting [28], 68.7%; under setting [29], 5.2%; under setting [30], 0.99%; under setting [35], 0.17%.

For `CC1OCC2(CCN(c3cnc(Sc4ccnc(N)c4Cl)c(N)n3)CC2)C1N` (stereo not given) + COc1cc2nc(C)nc(NC(C)c3cc(N)cc(C(F)(F)F)c3)c2cc1OC1CCOC1, the half-inhibitory concentration (IC50) under setting [1] is above 10000 nM; the 50% inhibitory concentration (IC50) under setting [2] stood at 6760 nM; the IC50 under setting [3] was determined as 7200 nM; the IC50 under setting [4] was determined as 5480 nM; the half-inhibitory concentration (IC50) under setting [5] was found to be 557 nM. The viability, T/C runs as follows: under setting [6], 88.2%; under setting [7], 83.7%; under setting [8], 74%; under setting [9], 75.6%; under setting [10], 100%; under setting [31], 58%. Moreover, the viability, T/C is, setting by setting: under setting [11], 87.4%; under setting [12], 89%; under setting [13], 88%; under setting [14], 95.9%; under setting [15], 95.5%; under setting [32], 28.8%. Also, the viability, T/C under setting [16] is 89%; the viability, T/C under setting [17] is 88%; the viability, T/C under setting [18] is 81.7%; the viability, T/C under setting [19] was 91.3%; the viability, T/C under setting [20] was 89.4%; the viability, T/C under setting [33] was 34.7%. Besides, the viability, T/C runs as follows: under setting [21], 93.9%; under setting [22], 104%; under setting [23], 101%; under setting [24], 98.5%; under setting [25], 91.6%; under setting [34], 4.35%. The viability, T/C is 76.5% under setting [26]; 68.7% under setting [27]; 63.1% under setting [28]; 37.4% under setting [29]; 8.46% under setting [30]; 0.53% under setting [35].

Consider `COc1cc2nccc(Oc3ccc(NC(=O)C4(C(=O)Nc5ccc(F)cc5)CC4)cc3)c2cc1OC`, for which the viability, T/C runs as follows: (compound 0.0316 µM) 102% [middle of 5 runs]; (compound 0.316 µM) 86.7% [middle of 5 runs]; (compound 1 µM) 83.7% [middle of 5 runs]; (compound 3.16 µM) 8.3% [middle of 5 runs]; (compound 10 µM) 7.11% [middle of 5 runs]. Also, under “curve of compound”, the IC50 is 1.75 µM [middle of 5 runs].

Regarding `Cn1nccc1Nc1nccc(-c2cc3c(s2)C(C)(C)N(CCN2CCOCC2)C3=O)n1` + C=CC(=O)N1CCN(c2nc(=O)n(-c3c(C)ccnc3C(C)C)c3nc(-c4c(O)cccc4F)c(F)cc23)C(C)C1, the IC50 under setting [1] was above 10000 nM; the IC50 under setting [2] is above 10000 nM; the IC50 under setting [3] amounted to 7090 nM; the IC50 under setting [4] is above 10000 nM; the IC50 under setting [5] was above 10000 nM. For the same compound, the viability, T/C was 89.9% under setting [6]; 101% under setting [7]; 119% under setting [8]; 100% under setting [9]; 81.3% under setting [10]; 85.8% under setting [31]. Besides, the viability, T/C is 84.2% under setting [11]; 91.3% under setting [12]; 122% under setting [13]; 107% under setting [14]; 83.2% under setting [15]; 72.2% under setting [32]. Also, the viability, T/C reads like this: under setting [16], 86.9%; under setting [17], 83.6%; under setting [18], 103%; under setting [19], 98.7%; under setting [20], 78.4%; under setting [33], 38%. The viability, T/C under setting [21] is 95.3%; the viability, T/C under setting [22] is 95.7%; the viability, T/C under setting [23] was 111%; the viability, T/C under setting [24] is 82.8%; the viability, T/C under setting [25] is 77.7%; the viability, T/C under setting [34] is 67%. For the same compound, the viability, T/C is 73.4% under setting [26]; 86.5% under setting [27]; 92.1% under setting [28]; 82.5% under setting [29]; 77.8% under setting [30]; 73% under setting [35].

For the compound `COc1cc2nc(C)nc(NC(C)c3cc(N)cc(C(F)(F)F)c3)c2cc1OC1CCOC1` (stereo not given), the IC50 is 5.81 µM [middle of 5 runs] (compound alone, run of 08/26/2021); > 10000 nM and 7540 nM (compound alone, run of 09/02/2021).
